The numbers were not newly measured in publication PMC3345309 (Hepatology (Baltimore, Md.), 2012), which cites them from elsewhere.

Each structure is given as a SMILES string.

In series [1] the test system is HCV Renilla reporter virus. The conditions noted are these: ref [18].
For series [2], the system named is NS5A-augmented HCV IRES-mediated translation. The conditions noted are these: ref [18].

For `O=c1c(O)c(-c2ccc(O)c(O)c2)oc2cc(O)cc(O)c12` [Quercetin], the “effect on virus production” value in series [1] was “blocked”. The “effect on NS5A-augmented IRES-mediated translation” value in series [2] is on record as “blocked”.
